Reference: ChEMBL document CHEMBL5532720, “A Potent Solution for Tumor Growth and Angiogenesis Suppression via an ELR+CXCL-CXCR1/2 Pathway Inhibitor” (ACS Med Chem Lett, 2024)
pIC50: −log10 of the molar value. ≈ marks a conversion by molar mass, not a printed value. Calls of active or inactive are those of the source. The rule behind the calls is not given here.

How the values were obtained:
[1] = Antiproliferative activity against human Cisplatin and radiotherapy resistant CAL27RR cells incubated for 48 hrs by XTT assay; type: functional, cell-based
[2] = target: Mitogen-activated protein kinase kinase kinase 3 (Homo sapiens) (UniProt Q99759); assay: Inhibition of MAP3K3 (unknown origin) at 10 uM in presence of ATP at Km concentration
[3] = Stability in human plasma assessed as half-life; type: ADME, cell-free
[4] = target: Receptor-interacting serine/threonine-protein kinase 2 (Homo sapiens) (UniProt O43353); assay: Inhibition of RIPK2 (unknown origin) at 10 uM in presence of ATP at Km concentration
[5] = target: Ribosomal protein S6 kinase alpha-4 (Homo sapiens) (UniProt O75676); assay: Inhibition of RPS6KA4 (unknown origin) at 10 uM in presence of ATP at Km concentration
[6] = Aqueous solubility of compound in PBS; type: physicochemical
[7] = Antiproliferative activity against human Sunitinib-resistant 786-R cells incubated for 48 hrs by XTT assay; type: functional, cell-based
[8] = Genotoxicity in Salmonella typhimurium TA1535 upto 100 uM in presence of S9 fraction by Ames test; type: toxicity, subcellular; conditions: salmonella enterica subsp. enterica serovar typhimurium, s9, 100 µM
[9] = target: Phosphorylase b kinase gamma catalytic chain, liver/testis isoform (Homo sapiens) (UniProt P15735); assay: Inhibition of PHKG2 (unknown origin) at 10 uM in presence of ATP at Km concentration
A498 [10] = assay: Inhibition of CXCL1 secretion in human A498 cells at 1 to 2.5 uM incubated for 48 hrs by ELISA; type: functional, cell-based; conditions: dose 1-2.5 µM
[11] = Stability in mouse hepatocytes assessed as half-life; type: ADME, cell-based, Hepatocyte
[12] = target: Casein kinase I isoform gamma-3 (Homo sapiens) (UniProt Q9Y6M4); assay: Inhibition of CSNK1G3 (unknown origin) at 10 uM in presence of ATP at Km concentration
[13] = target: Hepatocyte growth factor receptor (Homo sapiens) (UniProt P08581); assay: Inhibition of MET (unknown origin) at 10 uM in presence of ATP at Km concentration
[14] = Volume of distribution in NOD SCID mouse at 1 mg/kg, iv; type: ADME, organism-based; conditions: in vivo
[15] = Stability of compound at pH 2 measured after 24 hrs; type: physicochemical; conditions: buffer, pH 2, 24 h
[16] = Stability in mouse plasma assessed as half-life; type: ADME, cell-free
[17] = AUC (0 to infinity) in NOD SCID mouse at 200 mg/kg, po; type: ADME, organism-based; conditions: in vivo
[18] = Toxicity in athymic nude mouse xenografted with human 786-0 cells assessed as discernible signs at 100 mg/kg, po administered twice daily via gavage for 28 days; type: organism-based; conditions: in vivo, 672 h, time 28 day
TIME [19] = assay: Inhibition of CXCL8-dependent cell migration in human TIME cells at 0.5 uM incubated for 24 hrs by crystal violet staining based analysis; type: functional
A498 [20] = assay: Downregulation of CXCL1 mRNA expression in human A498 cells at 1 to 2.5 uM incubated for 48 hrs by qPCR analysis; type: functional, cell-based; conditions: dose 1-2.5 µM
TIME [21] = assay: Antiangiogenic activity in human TIME cells assessed as disruption of blood vessel network at 2.5 uM incubated for 24 hrs; type: functional, cell-based
[22] = target: Ephrin type-B receptor 2 (Homo sapiens) (UniProt P29323); assay: Inhibition of EPHB2 (unknown origin) at 10 uM in presence of ATP at Km concentration
[23] = Stability in human microsomes assessed as half-life; type: ADME, Microsome
[24] = AUC (0 to infinity) in NOD SCID mouse at 100 mg/kg, po; type: ADME, organism-based; conditions: in vivo
[25] = Half-life in NOD SCID mouse at 50 mg/kg, po; type: ADME, organism-based; conditions: in vivo
CAL-27 = assay: Antiproliferative activity against human CAL-27 cells incubated for 48 hrs by XTT assay; type: functional, cell-based; conditions: CAL-27, 48 h
[26] = Stability in mouse microsomes assessed as compound remaining measured after 1 hrs; type: ADME, Microsome; conditions: read-out: Stability
[27] = target: Tyrosine-protein kinase Yes (Homo sapiens) (UniProt P07947); assay: Inhibition of YES1 (unknown origin) at 10 uM in presence of ATP at Km concentration
[28] = target: CDK8/Cyclin C (Homo sapiens) (UniProt P49336+P24863); assay: Inhibition of CDK8/cyclin C (unknown origin) at 10 uM in presence of ATP at Km concentration; type: protein-complex assay
[29] = target: CDK7/Cyclin H/MNAT1 (Homo sapiens) (UniProt P51946+P50613+P51948); assay: Inhibition of CDK7/cyclin H/MNAT1 (unknown origin) at 10 uM in presence of ATP at Km concentration; type: protein-complex assay
[30] = target: Ephrin type-A receptor 2 (Homo sapiens) (UniProt P29317); assay: Inhibition of EPHA2 (unknown origin) at 10 uM in presence of ATP at Km concentration
[31] = Stability in human microsomes assessed as compound remaining measured after 1 hrs; type: ADME, Microsome; conditions: read-out: Stability
[32] = target: Insulin receptor (Homo sapiens) (UniProt P06213); assay: Inhibition of INSR (unknown origin) at 10 uM in presence of ATP at Km concentration
[33] = target: Tyrosine-protein kinase receptor UFO (Homo sapiens) (UniProt P30530); assay: Inhibition of AXL (unknown origin) at 10 uM in presence of ATP at Km concentration
[34] = Genotoxicity in Salmonella typhimurium TA100 upto 100 uM in absence of S9 fraction by Ames test; type: toxicity; conditions: salmonella enterica subsp. enterica serovar typhimurium, s9, 100 µM
[35] = Half-life in NOD SCID mouse at 200 mg/kg, po; type: ADME, organism-based; conditions: in vivo
[36] = target: Mitogen-activated protein kinase kinase kinase 20 (Homo sapiens) (UniProt Q9NYL2); assay: Inhibition of ZAK (unknown origin) at 10 uM in presence of ATP at Km concentration
A498 [37] = assay: Inhibition of CXCL8-induced cell migration in human A498 cells at 0.5 uM incubated for 24 hrs by crystal violet staining based analysis relative to control; type: functional
[38] = target: Phosphatidylinositol 4-phosphate 3-kinase C2 domain-containing subunit alpha (Homo sapiens) (UniProt O00443); assay: Inhibition of PIK3C2A (unknown origin) at 10 uM in presence of ATP at Km concentration
[39] = Stability in mouse hepatocytes assessed as intrinsic clearance measured per 10^6 cells; type: ADME, cell-based, Hepatocyte; conditions: read-out: CLH
[40] = target: Serine/threonine-protein kinase tousled-like 2 (Homo sapiens) (UniProt Q86UE8); assay: Inhibition of TLK2 (unknown origin) at 10 uM in presence of ATP at Km concentration
[41] = target: Misshapen-like kinase 1 (Homo sapiens) (UniProt Q8N4C8); assay: Inhibition of MINK1 (unknown origin) at 10 uM in presence of ATP at Km concentration
[42] = Genotoxicity in Salmonella typhimurium TA100 upto 100 uM in presence of S9 fraction by Ames test; type: toxicity, subcellular; conditions: salmonella enterica subsp. enterica serovar typhimurium, s9, 100 µM
[43] = Cmax in NOD SCID mouse at 50 mg/kg, po; type: ADME, organism-based; conditions: in vivo

Tyrosine-protein kinase receptor UFO (Homo sapiens), sequence (P30530 whole entry): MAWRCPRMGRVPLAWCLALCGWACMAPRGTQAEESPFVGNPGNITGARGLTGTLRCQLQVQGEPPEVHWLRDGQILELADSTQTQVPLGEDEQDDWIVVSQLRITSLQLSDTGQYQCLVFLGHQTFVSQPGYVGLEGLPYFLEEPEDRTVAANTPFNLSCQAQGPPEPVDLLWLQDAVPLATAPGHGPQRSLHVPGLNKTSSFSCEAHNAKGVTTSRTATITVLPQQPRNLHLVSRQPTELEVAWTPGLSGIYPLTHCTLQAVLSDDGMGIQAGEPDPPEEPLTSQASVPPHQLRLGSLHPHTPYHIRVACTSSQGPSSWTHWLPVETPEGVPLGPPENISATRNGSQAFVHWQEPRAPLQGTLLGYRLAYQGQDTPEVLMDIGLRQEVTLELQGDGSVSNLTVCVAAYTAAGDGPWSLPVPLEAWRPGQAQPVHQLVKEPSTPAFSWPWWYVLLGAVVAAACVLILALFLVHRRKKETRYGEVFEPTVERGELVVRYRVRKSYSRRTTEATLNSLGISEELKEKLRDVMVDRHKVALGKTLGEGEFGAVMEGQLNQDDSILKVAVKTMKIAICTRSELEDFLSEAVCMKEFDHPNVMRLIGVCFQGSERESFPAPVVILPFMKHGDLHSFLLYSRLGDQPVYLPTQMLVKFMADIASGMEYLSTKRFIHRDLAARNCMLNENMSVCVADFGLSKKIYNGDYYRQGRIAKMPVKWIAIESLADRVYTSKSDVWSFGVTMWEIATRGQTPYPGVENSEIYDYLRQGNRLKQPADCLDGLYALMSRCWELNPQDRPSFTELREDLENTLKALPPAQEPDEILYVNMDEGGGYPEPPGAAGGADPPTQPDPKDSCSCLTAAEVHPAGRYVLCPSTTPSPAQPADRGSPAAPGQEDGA
Ephrin type-A receptor 2 (Homo sapiens), sequence (P29317 whole entry): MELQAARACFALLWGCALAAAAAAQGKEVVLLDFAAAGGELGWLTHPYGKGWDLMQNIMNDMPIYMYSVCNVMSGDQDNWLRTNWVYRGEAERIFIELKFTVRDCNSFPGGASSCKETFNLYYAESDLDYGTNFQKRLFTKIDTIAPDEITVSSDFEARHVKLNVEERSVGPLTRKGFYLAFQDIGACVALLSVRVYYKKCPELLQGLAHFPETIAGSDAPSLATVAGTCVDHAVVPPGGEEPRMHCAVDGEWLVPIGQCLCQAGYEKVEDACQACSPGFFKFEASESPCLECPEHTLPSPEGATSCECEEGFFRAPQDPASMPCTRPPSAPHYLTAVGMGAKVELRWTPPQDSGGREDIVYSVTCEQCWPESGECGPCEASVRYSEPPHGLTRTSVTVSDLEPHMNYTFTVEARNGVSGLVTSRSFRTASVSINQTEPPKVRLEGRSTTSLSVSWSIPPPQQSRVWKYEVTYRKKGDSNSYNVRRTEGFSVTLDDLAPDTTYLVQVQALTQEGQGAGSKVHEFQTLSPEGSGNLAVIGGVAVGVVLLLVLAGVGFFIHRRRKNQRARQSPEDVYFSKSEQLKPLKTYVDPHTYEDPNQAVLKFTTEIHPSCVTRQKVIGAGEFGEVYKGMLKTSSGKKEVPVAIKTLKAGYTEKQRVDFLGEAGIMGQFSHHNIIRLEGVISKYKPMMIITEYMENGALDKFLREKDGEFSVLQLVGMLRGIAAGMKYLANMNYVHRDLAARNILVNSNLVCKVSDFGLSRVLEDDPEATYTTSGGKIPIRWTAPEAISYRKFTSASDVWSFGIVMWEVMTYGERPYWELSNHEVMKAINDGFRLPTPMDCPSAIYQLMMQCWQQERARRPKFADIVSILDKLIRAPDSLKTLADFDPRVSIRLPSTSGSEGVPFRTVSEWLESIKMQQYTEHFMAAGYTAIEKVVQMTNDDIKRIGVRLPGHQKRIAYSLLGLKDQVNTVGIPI
Hepatocyte growth factor receptor (Homo sapiens), sequence (P08581 whole entry): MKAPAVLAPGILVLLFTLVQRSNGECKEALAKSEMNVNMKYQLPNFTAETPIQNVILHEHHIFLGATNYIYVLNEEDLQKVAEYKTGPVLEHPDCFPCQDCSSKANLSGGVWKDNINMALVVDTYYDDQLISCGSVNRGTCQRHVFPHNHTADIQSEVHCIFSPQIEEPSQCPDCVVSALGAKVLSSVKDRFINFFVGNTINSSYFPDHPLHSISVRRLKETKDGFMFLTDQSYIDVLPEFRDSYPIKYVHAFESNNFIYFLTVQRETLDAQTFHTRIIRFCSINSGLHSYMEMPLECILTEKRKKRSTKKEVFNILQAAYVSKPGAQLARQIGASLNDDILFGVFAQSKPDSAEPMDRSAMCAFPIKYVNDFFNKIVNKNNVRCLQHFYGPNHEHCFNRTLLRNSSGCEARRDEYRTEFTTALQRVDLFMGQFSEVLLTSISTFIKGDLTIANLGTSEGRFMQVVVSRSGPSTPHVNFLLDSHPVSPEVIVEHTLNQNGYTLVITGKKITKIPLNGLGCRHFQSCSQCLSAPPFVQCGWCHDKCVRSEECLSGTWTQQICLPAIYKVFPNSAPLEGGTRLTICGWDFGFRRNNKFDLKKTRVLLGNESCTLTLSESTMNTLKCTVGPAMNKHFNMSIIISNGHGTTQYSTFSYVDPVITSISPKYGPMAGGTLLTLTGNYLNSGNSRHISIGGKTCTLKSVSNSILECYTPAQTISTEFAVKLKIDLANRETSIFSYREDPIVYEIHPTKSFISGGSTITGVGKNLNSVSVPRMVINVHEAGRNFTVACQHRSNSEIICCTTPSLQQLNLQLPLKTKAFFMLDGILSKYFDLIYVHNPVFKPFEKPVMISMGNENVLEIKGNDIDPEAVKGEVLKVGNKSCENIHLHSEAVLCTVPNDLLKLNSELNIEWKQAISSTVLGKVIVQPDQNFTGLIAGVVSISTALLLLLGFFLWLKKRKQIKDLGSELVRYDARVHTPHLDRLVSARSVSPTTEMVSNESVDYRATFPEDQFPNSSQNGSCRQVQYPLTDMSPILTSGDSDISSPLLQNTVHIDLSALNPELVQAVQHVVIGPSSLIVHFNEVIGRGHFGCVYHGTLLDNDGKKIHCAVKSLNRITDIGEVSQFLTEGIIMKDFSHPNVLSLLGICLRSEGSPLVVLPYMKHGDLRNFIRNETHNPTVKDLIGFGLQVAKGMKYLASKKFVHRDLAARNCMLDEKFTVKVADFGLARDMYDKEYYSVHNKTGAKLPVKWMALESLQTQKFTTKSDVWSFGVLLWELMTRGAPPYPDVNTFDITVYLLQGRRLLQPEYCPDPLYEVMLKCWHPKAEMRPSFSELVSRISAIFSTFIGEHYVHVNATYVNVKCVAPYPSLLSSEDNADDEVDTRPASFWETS
Insulin receptor (Homo sapiens), sequence (P06213 28-758 limits assumed): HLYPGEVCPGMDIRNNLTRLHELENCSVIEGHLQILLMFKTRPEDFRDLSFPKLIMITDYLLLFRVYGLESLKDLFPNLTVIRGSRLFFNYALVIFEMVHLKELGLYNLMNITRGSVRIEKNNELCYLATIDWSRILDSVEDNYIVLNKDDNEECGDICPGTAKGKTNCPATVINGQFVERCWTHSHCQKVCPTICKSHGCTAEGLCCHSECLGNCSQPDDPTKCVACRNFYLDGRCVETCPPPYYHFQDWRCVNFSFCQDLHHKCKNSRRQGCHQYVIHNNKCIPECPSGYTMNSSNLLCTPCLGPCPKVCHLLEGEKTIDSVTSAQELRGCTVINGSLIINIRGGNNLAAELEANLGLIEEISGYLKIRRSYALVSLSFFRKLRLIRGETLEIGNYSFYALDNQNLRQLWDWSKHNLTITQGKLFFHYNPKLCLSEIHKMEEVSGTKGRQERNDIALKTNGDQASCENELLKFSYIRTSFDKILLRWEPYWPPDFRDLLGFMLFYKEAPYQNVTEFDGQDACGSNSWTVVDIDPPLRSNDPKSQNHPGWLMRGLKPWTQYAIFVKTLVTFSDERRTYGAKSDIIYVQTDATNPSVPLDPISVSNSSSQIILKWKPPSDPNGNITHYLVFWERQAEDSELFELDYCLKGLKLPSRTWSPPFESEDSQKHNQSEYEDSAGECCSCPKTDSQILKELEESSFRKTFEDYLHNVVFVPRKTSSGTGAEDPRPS
Insulin receptor (Homo sapiens), sequence (P06213 763-1382 limits assumed): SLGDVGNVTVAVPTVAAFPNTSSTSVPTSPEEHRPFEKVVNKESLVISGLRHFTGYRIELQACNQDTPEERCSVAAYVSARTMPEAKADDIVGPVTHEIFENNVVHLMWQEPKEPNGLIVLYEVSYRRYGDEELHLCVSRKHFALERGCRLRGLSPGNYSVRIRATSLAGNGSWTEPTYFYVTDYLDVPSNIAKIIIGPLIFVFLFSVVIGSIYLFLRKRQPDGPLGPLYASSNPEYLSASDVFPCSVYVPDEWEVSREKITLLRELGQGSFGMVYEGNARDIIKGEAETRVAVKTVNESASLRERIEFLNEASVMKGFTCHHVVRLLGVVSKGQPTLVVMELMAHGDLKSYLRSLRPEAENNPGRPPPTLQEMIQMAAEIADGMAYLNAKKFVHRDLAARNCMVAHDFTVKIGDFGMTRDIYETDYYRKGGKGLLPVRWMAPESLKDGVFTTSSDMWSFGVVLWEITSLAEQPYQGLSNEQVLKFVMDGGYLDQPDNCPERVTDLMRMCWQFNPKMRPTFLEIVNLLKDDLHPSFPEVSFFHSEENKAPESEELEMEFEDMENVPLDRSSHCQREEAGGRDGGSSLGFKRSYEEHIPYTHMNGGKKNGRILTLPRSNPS
Phosphorylase b kinase gamma catalytic chain, liver/testis isoform (Homo sapiens), sequence (P15735 whole entry, canonical isoform): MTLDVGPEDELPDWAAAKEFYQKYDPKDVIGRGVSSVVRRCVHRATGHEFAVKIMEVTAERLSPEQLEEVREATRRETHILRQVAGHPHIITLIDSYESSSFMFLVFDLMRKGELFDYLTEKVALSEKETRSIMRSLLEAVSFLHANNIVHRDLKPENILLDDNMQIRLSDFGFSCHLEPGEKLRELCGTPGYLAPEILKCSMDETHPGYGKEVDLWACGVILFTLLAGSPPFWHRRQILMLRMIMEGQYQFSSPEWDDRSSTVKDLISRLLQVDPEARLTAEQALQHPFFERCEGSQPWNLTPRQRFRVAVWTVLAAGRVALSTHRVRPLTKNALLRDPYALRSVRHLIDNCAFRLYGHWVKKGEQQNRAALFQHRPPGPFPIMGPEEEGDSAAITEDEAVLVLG

## O=C(Nc1cc(Cl)cc(Cl)c1)Nc1nc2ccc([N+](=O)[O-])cc2s1
[1]
  pIC50: 5.60
[2]
  inhibition: inactive
[3]
  half-life: > 4.82 h
[4]
  inhibition: inactive
[5]
  inhibition: inactive
[6]
  solubility: 1.9 µM (≈ 0.728 µg/mL)
[7]
  pIC50: 5.52
[8]
  Activity: Non-Toxic
[9]
  inhibition: inactive
A498 [10]
  inhibition: Active
[11]
  half-life: 0.352 h
[12]
  inhibition: inactive
[13]
  inhibition: inactive
[14]
  Vd: 1 L/kg
[15]
  Stability: Stable
[16]
  half-life: > 4.82 h
[17]
  AUC(0-inf): 19300 ng·h/mL
[18]
  Activity: Non-Toxic
TIME [19]
  inhibition: Active
A498 [20]
  Activity: Active
TIME [21]
  Activity: Active
[22]
  inhibition: inactive
[23]
  half-life: > 1 h
[24]
  AUC(0-inf): 14200 ng·h/mL
[25]
  half-life: 1.8 h
CAL-27
  pIC50: 5.60
[26]
  remaining at 1 h: 76%
[27]
  inhibition: inactive
[28]
  inhibition: inactive
[29]
  inhibition: inactive
[30]
  inhibition: inactive
[31]
  remaining at 1 h: 71%
[32]
  inhibition: inactive
[33]
  inhibition: inactive
[34]
  Activity: Non-Toxic
[35]
  half-life: 2.7 h
[36]
  inhibition: inactive
A498 [37]
  inhibition at 0.5 µM: > 50%
[38]
  inhibition: inactive
[39]
  hepatocyte CLint: 65.8 µL/min/1e6 cells
[40]
  inhibition: inactive
[41]
  inhibition: inactive
[42]
  Activity: Non-Toxic
[43]
  Cmax: 2000 nM
